The source made the active and inactive calls. No rule for the calls is given here.
Test system: rodent carcinogenicity bioassays, tumor incidence
Experiment: CCRIS carcinogenicity studies
In short: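 Archive of carcinogenicity, mutagenicity, tumor promotion and tumor inhibition results drawn from journals, NCI reports and other sources, expert-reviewed; covers 1985-2011 and is no longer updated.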

With `[O]=[Cd]` the carcinogen call (Species: HAMSTER, Strain/Sex: SYRIAN/MALE, Route: INHALATION, Dose: 0, 10 UG/M3 19 HR/D 5 D/WK FOR 65 WK FOR A TOTAL CADMIUM DOSE OF 0, 63 MG/M3 (STUDY DURATION: 113 WK), Dose: 0, 10 UG/M3 19 HR/D 5 D/WK FOR 65 WK FOR A TOTAL CADMIUM DOSE OF 0, 63 MG/M3 (STUDY DURATION: 113 WK)) was “inactive; negative”, the carcinogen call (Species: HAMSTER, Strain/Sex: SYRIAN/MALE, Route: INHALATION, Dose: 0, 90 UG/M3 8 HR/D 5 D/WK FOR 65 WK FOR A TOTAL CADMIUM DOSE OF 0, 216 MG/M3 (STUDY DURATION: 113 WK), Dose: 0, 90 UG/M3 8 HR/D 5 D/WK FOR 65 WK FOR A TOTAL CADMIUM DOSE OF 0, 216 MG/M3 (STUDY DURATION: 113 WK)) was “inactive; negative” and the carcinogen call (Species: HAMSTER, Strain/Sex: SYRIAN/MALE, Route: INHALATION, Dose: 0, 270 UG/M3 8 HR/D 5 D/WK FOR 53 WK FOR A TOTAL CADMIUM DOSE OF 0, 522 MG/M3 (STUDY DURATION: 70 WK), Dose: 0, 270 UG/M3 8 HR/D 5 D/WK FOR 53 WK FOR A TOTAL CADMIUM DOSE OF 0, 522 MG/M3 (STUDY DURATION: 70 WK)) was “inactive; negative”. The carcinogen call (Species: RAT, Strain/Sex: FEMALE, Route: SUBCUTANEOUS, Dose: 25 MG ONCE, Tumor Site: Type of Lesion: INJECTION SITE: SARCOMA) was “active; positive”, the carcinogen call (Species: RAT, Strain/Sex: FEMALE, Route: SUBCUTANEOUS, Dose: 25 MG, SINGLE DOSE, Tumor Site: Type of Lesion: INJECTION SITE) was “active; positive” and the carcinogen call (Species: RAT, Strain/Sex: WISTAR/FEMALE, Route: INHALATION, Dose: 0, 30 UG/M3 8 HR/D,5D/WK FOR 18 MO (STUDY DURATION: 18 MO)) was “inactive; negative”. For the same molecule, the carcinogen call (Species: RAT, Strain/Sex: WISTAR/FEMALE, Route: INHALATION, Dose: 0, 30 UG/M3 CADMIUM OXIDE DUST 22 HR/D 7 D/WK FOR 18 MO (STUDY DURATION: 31 MO), Tumor Site: Type of Lesion: LUNG: TUMOR) was “active; positive”, the carcinogen call (Species: RAT, Strain/Sex: WISTAR/FEMALE, Route: INHALATION, Dose: 0, 30 UG/M3 DUST 22 HR/D 7 D/WK FOR 18 MO (STUDY DURATION: 31 MO), Tumor Site: Type of Lesion: LUNG: ALVEOLAR/BRONCHIOLAR ADENOMA, ADENOCARCINOMA, SQUAMOUS CELL CARCINOMA) was “active; positive” and the carcinogen call (Species: RAT, Strain/Sex: WISTAR/FEMALE, Route: INHALATION, Dose: 0, 30 UG/M3 OF CADMIUM OXIDE DUST 22 HR/D 7 D/WK FOR 18 MO (STUDY DURATION: 31 MO), Tumor Site: Type of Lesion: LUNG: ALVEOLAR/BRONCHIOLAR ADENOMA, ADENOCARCINOMA, SQUAMOUS CELL CARCINOMA) was “active; positive”. The carcinogen call (Species: RAT, Strain/Sex: WISTAR/FEMALE, Route: INHALATION, Dose: 0, 90 UG/M3 CADMIUM OXIDE DUST 22 HR/D 7 D/WK FOR 4 MO (STUDY DURATION: 31 MO), Tumor Site: Type of Lesion: LUNG: TUMOR) was “active; positive”, the carcinogen call (Species: RAT, Strain/Sex: WISTAR/FEMALE, Route: INHALATION, Dose: 0, 90 UG/M3 CADMIUM OXIDE DUST DISCONTINOUS EXPOSURE FOR 40 HR/WK FOR 6 MO (STUDY DURATION: 31 MO), Tumor Site: Type of Lesion: LUNG: TUMOR) was “active; positive” and the carcinogen call (Species: RAT, Strain/Sex: WISTAR/FEMALE, Route: INHALATION, Dose: 0, 90 UG/M3 DUST 8 HR/D 5 D/WK FOR 6 MO (STUDY DURATION: 31 MO), Tumor Site: Type of Lesion: LUNG: ADENOCARCINOMA, SQUAMOUS CELL CARCINOMA) was “active; positive”. The carcinogen call (Species: RAT, Strain/Sex: WISTAR/FEMALE, Route: INHALATION, Dose: 0, 90 UG/M3 DUST 22 HR/D 7 D/WK FOR 11 MO (STUDY DURATION: 31 MO), Tumor Site: Type of Lesion: LUNG: ALVEOLAR/BRONCHIOLAR ADENOMA, ADENOCARCINOMA, SQUAMOUS CELL CARCINOMA) was “active; positive”, the carcinogen call (Species: RAT, Strain/Sex: WISTAR/FEMALE, Route: INHALATION, Dose: 0, 90 UG/M3 OF CADMIUM OXIDE DUST 22 HR/D 7 D/WK FOR 11 MO (STUDY DURATION: 31 MO), Tumor Site: Type of Lesion: LUNG: ALVEOLAR/BRONCHIOLAR ADENOMA, ADENOCARCINOMA, SQUAMOUS CELL CARCINOMA) was “active; positive” and the carcinogen call (Species: RAT, Strain/Sex: WISTAR/FEMALE, Route: INHALATION, Dose: 0, 90 UG/M3 OF CADMIUM OXIDE DUST 40 HR/WK FOR 6 MO (STUDY DURATION: 31 MO)) was “inactive; negative”. The carcinogen call (Species: RAT, Strain/Sex: WISTAR/MALE, Route: INHALATION, Dose: 0, 10 UG/M3 CADMIUM OXIDE FUME 22 HR/D 7 D/WK FOR 18 MO (STUDY DURATION: 31 MO)) was “inactive; negative”, the carcinogen call (Species: RAT, Strain/Sex: WISTAR/MALE, Route: INHALATION, Dose: 0, 10 UG/M3 FUME 22 HR/D 7 D/WK FOR 18 MO (STUDY DURATION: 31 MO)) was “inactive; negative” and the carcinogen call (Species: RAT, Strain/Sex: WISTAR/MALE, Route: INHALATION, Dose: 0, 10 UG/M3 OF CADMIUM OXIDE FUME 22 HR/D 7 D/WK FOR 18 MO (STUDY DURATION: 31 MO)) was “inactive; negative”. The carcinogen call (Species: RAT, Strain/Sex: WISTAR/MALE, Route: INHALATION, Dose: 0, 30 UG/M3 CADMIUM OXIDE DUST 22 HR/D 7 D/WK FOR 18 MO (STUDY DURATION: 31 MO), Tumor Site: Type of Lesion: LUNG: ADENOMA OR ADENOCARCINOMA OR SQUAMOUS CELL TUMOR OR ADENOSQUAMOUS CARCINOMA) was “active; positive”, the carcinogen call (Species: RAT, Strain/Sex: WISTAR/MALE, Route: INHALATION, Dose: 0, 30 UG/M3 CADMIUM OXIDE DUST 22 HR/D 7 D/WK FOR 18 MO (STUDY DURATION: 31 MO), Tumor Site: Type of Lesion: LUNG: TUMOR) was “active; positive” and the carcinogen call (Species: RAT, Strain/Sex: WISTAR/MALE, Route: INHALATION, Dose: 0, 30 UG/M3 CADMIUM OXIDE DUST 22 HR/D 7 D/WK FOR 18 MO ADMINISTERED TO RATS MAINTAINED ON ZINC REDUCED (24 PPM) DIET (S, Tumor Site: Type of Lesion: LUNG: TUMOR) was “active; positive”. For the same molecule, the carcinogen call (Species: RAT, Strain/Sex: WISTAR/MALE, Route: INHALATION, Dose: 0, 30 UG/M3 CADMIUM OXIDE FUME 22 HR/D 7 D/WK FOR 18 MO (STUDY DURATION: 31 MO), Tumor Site: Type of Lesion: LUNG: TUMOR) was “active; positive”, the carcinogen call (Species: RAT, Strain/Sex: WISTAR/MALE, Route: INHALATION, Dose: 0, 30 UG/M3 DUST 22 HR/D 7 D/WK FOR 18 MO (STUDY DURATION: 31 MO), Tumor Site: Type of Lesion: LUNG: ALVEOLAR/BRONCHIOLAR ADENOMA, ADENOCARCINOMA, SQUAMOUS CELL CARCINOMA) was “active; positive” and the carcinogen call (Species: RAT, Strain/Sex: WISTAR/MALE, Route: INHALATION, Dose: 0, 30 UG/M3 DUST 22 HR/D 7 D/WK FOR 18 MO MAINTAINED ON ZN REDUCED DIET (24 PPM) FOR STUDY DURATION (STUDY DURATION: 29, Tumor Site: Type of Lesion: LUNG: ALVEOLAR/BRONCHIOLAR ADENOMA, ADENOCARCINOMA, SQUAMOUS CELL CARCINOMA) was “active; positive”. For the same molecule, the carcinogen call (Species: RAT, Strain/Sex: WISTAR/MALE, Route: INHALATION, Dose: 0, 30 UG/M3 FUME 22 HR/D 7 D/WK FOR 18 MO (STUDY DURATION: 31 MO), Tumor Site: Type of Lesion: LUNG: ALVEOLAR/BRONCHIOLAR ADENOMA, ADENOCARCINOMA) was “active; positive”, the carcinogen call (Species: RAT, Strain/Sex: WISTAR/MALE, Route: INHALATION, Dose: 0, 30 UG/M3 OF CADMIUM OXIDE DUST 22 HR/D 7 D/WK FOR 18 MO (STUDY DURATION: 29 MO), Tumor Site: Type of Lesion: LUNG: ALVEOLAR/BRONCHIOLAR ADENOMA, ADENOCARCINOMA) was “active; positive” and the carcinogen call (Species: RAT, Strain/Sex: WISTAR/MALE, Route: INHALATION, Dose: 0, 30 UG/M3 OF CADMIUM OXIDE DUST 22 HR/D 7 D/WK FOR 18 MO (STUDY DURATION: 31 MO), Tumor Site: Type of Lesion: LUNG: ALVEOLAR/BRONCHIOLAR ADENOMA, ADENOCARCINOMA, SQUAMOUS CELL CARCINOMA) was “active; positive”. The carcinogen call (Species: RAT, Strain/Sex: WISTAR/MALE, Route: INHALATION, Dose: 0, 30 UG/M3 OF CADMIUM OXIDE FUME 22 HR/D 7 D/WK FOR 18 MO (STUDY DURATION: 31 MO)) was “inactive; negative”, the carcinogen call (Species: RAT, Strain/Sex: WISTAR/MALE, Route: INHALATION, Dose: 0, 90 UG/M3, 8 HR/D, 5D/WK FOR 7.1 MO (STUDY DURATION: 7.1 MO)) was “inactive; negative” and the carcinogen call (Species: RAT, Strain/Sex: WISTAR/MALE, Route: INHALATION, Dose: 0, 90 UG/M3 CADMIUM OXIDE DUST 22 HR/D 7 D/WK FOR 7 MO (STUDY DURATION: 31 MO), Tumor Site: Type of Lesion: LUNG: ADENOMA OR ADENOCARCINOMA OR SQUAMOUS CELL TUMOR) was “active; positive”. The carcinogen call (Species: RAT, Strain/Sex: WISTAR/MALE, Route: INHALATION, Dose: 0, 90 UG/M3 CADMIUM OXIDE DUST 22 HR/D 7 D/WK FOR 7 MO (STUDY DURATION: 31 MO), Tumor Site: Type of Lesion: LUNG: TUMOR) was “active; positive”, the carcinogen call (Species: RAT, Strain/Sex: WISTAR/MALE, Route: INHALATION, Dose: 0, 90 UG/M3 CADMIUM OXIDE DUST DISCONTINOUS EXPOSURE FOR 40 HR/WK FOR 6 MO (STUDY DURATION: 31 MO), Tumor Site: Type of Lesion: LUNG: TUMOR) was “active; positive” and the carcinogen call (Species: RAT, Strain/Sex: WISTAR/MALE, Route: INHALATION, Dose: 0, 90 UG/M3 DUST 8 HR/D 5 D/WK FOR 6 MO (STUDY DURATION: 31 MO), Tumor Site: Type of Lesion: LUNG: ALVEOLAR/BRONCHIOLAR ADENOMA, ADENOCARCINOMA, SQUAMOUS CELL CARCINOMA) was “active; positive”. For the same molecule, the carcinogen call (Species: RAT, Strain/Sex: WISTAR/MALE, Route: INHALATION, Dose: 0, 90 UG/M3 DUST 22 HR/D 7 D/WK FOR 7 MO (STUDY DURATION: 31 MO), Tumor Site: Type of Lesion: LUNG: ALVEOLAR/BRONCHIOLAR ADENOMA, ADENOCARCINOMA) was “active; positive”, the carcinogen call (Species: RAT, Strain/Sex: WISTAR/MALE, Route: INHALATION, Dose: 0, 90 UG/M3 OF CADMIUM OXIDE DUST 22 HR/D 7 D/WK FOR 7 MO (STUDY DURATION: 31 MO), Tumor Site: Type of Lesion: LUNG: ALVEOLAR/BRONCHIOLAR ADENOMA, ADENOCARCINOMA) was “active; positive” and the carcinogen call (Species: RAT, Strain/Sex: WISTAR/MALE, Route: INHALATION, Dose: 0, 90 UG/M3 OF CADMIUM OXIDE DUST 40 HR/WK FOR 6 MO (STUDY DURATION: 31 MO)) was “inactive; negative”.

Source: PubChem BioAssay AID1259411 (Chemical Carcinogenesis Research Information System (CCRIS), 2018)
